Reference: US9481654B2, “Compositions and methods for inhibition of the JAK pathway” (Rigel Pharmaceuticals, Inc., priority 2006, dated 2016)
Where a name gives a salt, the structure may show the parent alone.

How the values were obtained:
[1] = test system: primary human T-cells (IL-2 induced proliferation, JAK-1/JAK-3, Stat-5); assay: Primary Human T-Cell Proliferation Assay Stimulated with IL-2 (CellTiter-Glo); type: cell-based; settings: Table III Example 4
Method: In this assay, primary human T-cells derived from peripheral blood and pre-activated through stimulation of the T-cell receptor and CD28, proliferate in culture in response to the cytokine Interleukin-2 (IL-2). This proliferative response is dependent on the activation of JAK1 and JAK3 tyrosine kinases, which phosphorylate and activate the transcription factor Stat-5. The primary human T-cells are incubated with the 2,4-pyrimidinediamine compounds in the presence of IL-2 for 72 hours, and at the assay endpoint intracellular ATP concentrations are measured to assess cell viability. A reduction in cell proliferation compared to control conditions is indicative of inhibition of the JAK kinase pathway.
Primary human T-cells derived from peripheral blood and pre-activated through stimulation of the T-cell receptor and CD28 proliferate in vitro in response to the cytokine Interleukin-2 (IL-2). This proliferative response is dependent on the activation of JAK-1 and JAK-3 tyrosine kinases, which phosphorylate and activate the transcription factor Stat-5.
Human primary T cells were prepared as follows. […] The lymphocytes at the serum: ficoll interface were recovered and washed twice with 5 volumes of PBS. […] The primary T-cells were stimulated for 3 to 4 days, then transferred to a fresh flask and maintained in RPMI with 10% FBS and 40 U/mL IL-2.
Primary T-cells were washed twice with PBS to remove the IL-2 and resuspended in Yssel's medium at 2×10^6 cells/mL. 50 μL of cell suspension containing 80 U/mL IL-2 was added to each well of a flat bottom 96 well black plate. For the unstimulated control, IL-2 was omitted from the last column on the plate. […] 50 μL of 2× compound was added per well in duplicate and the cells were allowed to proliferate for 72 hours at 37° C.
Proliferation was measured using CellTiter-Glo® Luminescent Cell Viability Assay (Promega), which determines the number of viable cells in culture based on quantitation of the ATP present, as an indicator of metabolically active cells. The substrate was thawed and allowed to come to room temperature. After mixing the Cell Titer-Glo reagent and diluent together, 100 μL was added to each well. The plates were mixed on an orbital shaker for two minutes to induce lysis and incubated at room temperature for an additional ten minutes to allow the signal to equilibrate.

[2] = test system: IL-4 stimulated CD23 upregulation in human Ramos B cells (JAK-1/JAK-3, Stat-6); assay: Assay for Ramos B-Cell Line Stimulated with IL-4 (CD23 upregulation, FACS); type: cell-based
From the text: One means of assaying for such inhibition is detection of the effect of the 2,4-pyrimidinediamine compounds on the upregulation of downstream gene products. In the Ramos/IL4 assay, B-cells are stimulated with the cytokine Interleukin-4 (IL-4) leading to the activation of the JAK/Stat pathway through phosphorylation of the JAK family kinases, JAK1 and JAK3, which in turn phosphorylate and activate the transcription factor Stat-6. […] To study the effect of inhibitors (e.g., the 2,4-substituted pyrimindinediamine compounds described herein) on the JAK1 and JAK3 kinases, human Ramos B cells are stimulated with human IL-4. 20 to 24 hours post stimulation, cells are stained for upregulation of CD23 and analyzed using flow cytometry (FACS).
B-cells stimulated with cytokine Interleukin-4 (IL-4) activate the JAK/Stat pathway through phosphorylation of the JAK family kinases, JAK-1 and JAK-3, which in turn phosphorylate and activate the transcription factor Stat-6. […] To study the effect of inhibitors on the JAK family kinases, human Ramos B cells are stimulated with human IL-4.
Cells were maintained at a density of 3.5×10^5. The day before the experiment, Ramos B-cells were diluted to 3.5×10^5 cells/mL to ensure that they were in a logarithmic growth phase.
Cells were spun down and suspended in RPMI with 5% serum. 5×10^4 cells were used per point in a 96-well tissue culture plate. Cells were pre-incubated with compound or DMSO (Sigma-Aldrich, St. Louis, Mo., Cat No. D2650) vehicle control for 1 hour in a 37° C. incubator. Cells were then stimulated with IL-4 (Peprotech Inc., Rocky Hill, N.J., Cat No. 200-04) for a final concentration of 50 units/mL for 20-24 hours. […] Detection was performed using a BD LSR I System Flow Cytometer, purchased from Becton Dickinson Biosciences of San Jose, Calif.

[3] = Homo sapiens, Ramos, Table III Example 3

Compound | IC50 [1] | IC50 ([2]; Table III Example 3) | further results
C#CCNS(=O)(=O)Cc1cccc(Nc2nc(Nc3ccc(S(N)(=O)=O)cc3)ncc2F)c1 [Compound I-2, N2-(4-Aminosulfonylphenyl)-5-fluoro-N4-[3-(prop-2-ynylaminosulfonylmethyl)phenyl]-2,4-pyrimidinediamine] | – | – | IC50 ([1]; Homo sapiens, T-cell): 3730 nM; IC50 [2, 3]: 647 nM
C#CCNS(=O)(=O)Cc1ccc(Nc2nc(Nc3ccc(S(N)(=O)=O)cc3)ncc2F)cc1 [Compound I-6, N2-(4-Aminosulfonylphenyl)-5-fluoro-N4-[4-(prop-2-ynylaminosulfonylmethyl)phenyl]-2,4-pyrimidinediamine] | – | – | IC50 ([1]; Homo sapiens, T-cell): 536 nM; IC50 [2, 3]: 559 nM
C#CCNS(=O)(=O)c1cccc(Nc2ncc(F)c(Nc3ccc(CNS(=O)(=O)C4CC4)cc3)n2)c1 [Compound I-7, 5-Fluoro-N4-[4-(cyclopropylsulfonylaminomethyl)phenyl]-N2-[3-(prop-2-ynylaminosulfonyl)phenyl]-2,4-pyrimidinediamine] | – | – | IC50 ([1]; Homo sapiens, T-cell): 113 nM; IC50 [2, 3]: 73.5 nM
CCS(=O)(=O)N[C@@H](C)c1ccc(Nc2nc(Nc3ccc(S(N)(=O)=O)cc3)ncc2F)cc1 [Compound I-26, N2-(4-aminosulfonyl)phenyl-N4-[4-(1S-ethylsulfonylamino)ethyl]phenyl-5-fluoro-2,4-pyrimidinediamine] | 1160 nM | 252 nM | –
CCS(=O)(=O)N[C@H](C)c1ccc(Nc2nc(Nc3ccc(S(N)(=O)=O)cc3)ncc2F)cc1 [Compound I-29, N2-(4-aminosulfonyl)phenyl-N4-[4-(1R-ethylsulfonylamino)ethyl]phenyl-5-fluoro-2,4-pyrimidinediamine] | 882 nM | 203 nM | –
NS(=O)(=O)c1ccc(Nc2ncc(F)c(Nc3cccc(CNS(=O)(=O)C4CC4)c3)n2)cc1 [Compound I-32, N2-(4-aminosulfonyl)phenyl-N4-(3-cyclopropylsulfonylaminomethyl)phenyl-5-fluoro-2,4-pyrimidinediamine] | 1560 nM | 364 nM | –
NS(=O)(=O)c1ccc(Nc2ncc(F)c(Nc3ccc(CNS(=O)(=O)c4cccs4)cc3)n2)cc1 [Compound I-35, N2-(4-aminosulfonyl)phenyl-5-fluoro-N4-[4-(thiophen-2-yl)sulfonylaminomethyl]phenyl-2,4-pyrimidinediamine] | 436 nM | 133 nM | –
Cc1nc(N)sc1S(=O)(=O)NCc1ccc(Nc2nc(Nc3cccc(S(N)(=O)=O)c3)ncc2F)cc1 [Compound I-41, N4-[4-(2-amino-4-methylthiazol-5-yl)sulfonylaminomethyl]phenyl-N2-(3-aminosulfonyl)phenyl-5-fluoro-2,4-pyrimidinediamine] | 2120 nM | 1020 nM | –
CC(=O)Nc1nc(C)c(S(=O)(=O)NCc2ccc(Nc3nc(Nc4cccc(S(N)(=O)=O)c4)ncc3F)cc2)s1 [Compound I-42, N4-[4-(2-acetylamino-4-methylthiazol-5-yl)sulfonylaminomethyl]phenyl-N2-(3-aminosulfonyl)phenyl-5-fluoro-2,4-pyrimidinediamine] | 3220 nM | 1150 nM | –
CC(=O)Nc1nc(C)c(S(=O)(=O)NCc2ccc(Nc3nc(Nc4ccc(C)c(S(N)(=O)=O)c4)ncc3F)cc2)s1 [Compound I-44, N4-[4-(2-acetylamino-4-methylthiazol-5-yl)sulfonylaminomethyl]phenyl-N2-(3-aminosulfonyl-4-methyl)phenyl-5-fluoro-2,4-pyrimidinediamine] | 4160 nM | 1220 nM | –
CCCCCC(=O)NS(=O)(=O)c1cccc(Nc2ncc(C)c(Nc3cccc(CN(C(=O)CCCCC)S(=O)(=O)C4CC4)c3)n2)c1 [Compound I-219, N4-[3-(N-cyclopropylsulfonyl-N-hexanoyl)aminomethyl]phenyl-N2-(3-hexanoylaminosulfonyl)phenyl-5-methyl-2,4-pyrimidinediamine sodium salt] | – | – | IC50 ([2]; Table III Example 3, sodium salt): 2600 nM
CCCCC(=O)NS(=O)(=O)c1cccc(Nc2ncc(C)c(Nc3cccc(CN(C(=O)CCCC)S(=O)(=O)C4CC4)c3)n2)c1 [Compound I-220, N4-[3-(N-cyclopropylsulfonyl-N-valeryl)aminomethyl]phenyl-5-methyl-N2-(3-valerylaminosulfonyl)phenyl-2,4-pyrimidinediamine] | – | 2020 nM | –
CCCC(=O)NS(=O)(=O)c1cccc(Nc2ncc(C)c(Nc3cccc(CN(C(=O)CCC)S(=O)(=O)C4CC4)c3)n2)c1 [Compound I-222, N2-(3-butyrylaminosulfonyl)phenyl-N4-[3-(N-butyryl-N-cyclopropylsulfonyl)aminomethyl]phenyl-5-methyl-2,4-pyrimidinediamine Choline salt] | – | 3030 nM | –
CCCC(=O)NS(=O)(=O)c1cccc(Nc2ncc(C)c(Nc3cccc(CNS(=O)(=O)C4CC4)c3)n2)c1 [Compound I-223, N2-(3-butyrylaminosulfonyl)phenyl-N4-(3-cyclopropylsulfonylaminomethyl)phenyl-5-methyl-2,4-pyrimidinediamine] | – | 3690 nM | –
CCCC(=O)N(Cc1cccc(Nc2nc(Nc3cccc(S(N)(=O)=O)c3)ncc2C)c1)S(=O)(=O)C1CC1 [Compound I-224, N2-(3-aminosulfonyl)phenyl-N4-[3-(N-butyryl-N-cyclopropylsulfonyl)aminomethyl]phenyl-5-methyl-2,4-pyrimidinediamine] | – | 21.8 nM | –
CCCC(=O)N(COC(C)=O)S(=O)(=O)c1cccc(Nc2ncc(C)c(Nc3cccc(CNS(=O)(=O)C4CC4)c3)n2)c1 [Compound I-225, N2-[3-(N-acetoxymethyl-N-butyryl)aminosulfonyl]phenyl-N4-(3-cyclopropylsulfonylaminomethyl)phenyl-5-methyl-2,4-pyrimidinediamine] | – | 115 nM | –
CCC(=O)NS(=O)(=O)c1cccc(Nc2ncc(C)c(Nc3cccc(CN(C(=O)CC)S(=O)(=O)C4CC4)c3)n2)c1 [Compound I-226, N4-[3-(N-cyclopropylsulfonyl-N-propionyl)aminomethyl]phenyl-5-methyl-N2-(3-propionylaminosulfonyl)phenyl-2,4-pyrimidinediamine Choline salt] | – | 5490 nM | –
Cc1ccc(Nc2ncc(F)c(Nc3ccc4c(c3)CN(S(=O)(=O)C3CC3)C4)n2)cc1S(N)(=O)=O [II-4, N2-(3-Aminosulfonyl-4-methylphenyl)-N4-[(2-cyclopropylsulfonyl)-isoindolin-5-yl]-5-fluoro-2,4-pyrimidinediamine] | – | 720 nM | –
NS(=O)(=O)c1cccc(Nc2ncc(F)c(Nc3ccc4c(c3)CN(S(=O)(=O)C3CC3)C4)n2)c1 [II-5, N2-(3-Aminosulfonyl-phenyl)-N4-[(2-cyclopropylsulfonyl)-isoindolin-5-yl]-5-fluoro-2,4-pyrimidinediamine] | – | 698 nM | –
NS(=O)(=O)c1ccc(Nc2ncc(F)c(Nc3ccc4c(c3)CN(S(=O)(=O)C3CC3)C4)n2)cc1 [II-6, N2-(4-Aminosulfonyl-phenyl)-N4-[(2-cyclopropylsulfonyl)-isoindolin-5-yl]-5-fluoro-2,4-pyrimidinediamine] | – | 640 nM | –
N4-[3-(N-cyclopropylsulfonyl-N-valeryl)aminomethyl]phenyl-5-methyl-N2-(3-valerylaminosulfonyl)phenyl-2,4-pyrimidinediamine sodium salt [Compound I-221] | – | 1880 nM | –
N4-[4-(N-cyclopropylsulfonyl-N-propionyl)aminomethyl]phenyl-5-methyl-N2-(4-propionylaminosulfonyl)phenyl-2,4-pyrimidinediamine sodium salt [Compound I-78] | – | 1080 nM | –
